According to US20230234942A1, “COMPOUNDS FOR TREATING HUNTINGTON'S DISEASE” (PTC Therapeutics, Inc., priority 2020, published 2023):

system: Endogenous Huntingtin Protein; assay: Endogenous Huntingtin Protein Assay (ELISA-based MSD electrochemiluminescence); assay type: cell-based; settings: Table 2; MSD plates coated with MW1 (expanded polyglutamine) or MAB2166 capture antibody; "inactive" = result above the detection limit of the assay
How it was run: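 Endogenous huntingtin measured on MSD plates coated with MW1 (polyglutamine-expanded) or MAB2166 capture antibody; lysates bound overnight at 4 °C. Signal developed with #56565 rabbit monoclonal and goat anti-rabbit SULFO-TAG (0.25 µg/mL, 1 h RT each), electrochemiluminescence read on SI 6000.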

Row | SMILES | IC50 [nM] | IC50 (nM)
1 | [2H]C([2H])([2H])Oc1cc(-c2ccc(-c3cnc(N4CCNC(C(C)(C)O)C4)nn3)c(O)c2)ncn1 (stereo not shown) [Cpd 8, 2-{3-[3-(2-hydroxypropan-2-yl)piperazin-1-yl]-1,2,4-triazin-6-yl}-5-{6-[(^2H3)methyloxy]pyrimidin-4-yl}phenol] | 8.7 | –
2 | Cc1nnn2cc(-c3ccc(-c4cnc(N5CCN[C@@H](C6CC6)C5)nn4)c(O)c3)ccc12 [Cpd 193, 2-{3-[(3S)-3-cyclopropylpiperazin-1-yl]-1,2,4-triazin-6-yl}-5-(3-methyl[1,2,3]triazolo[1,5-a]pyridin-6-yl)phenol] | 4.8 | –
3 | COc1cc(-c2ccc(-c3cnc(N4C[C@@H](C)N[C@@H](C(C)(C)C)C4)nn3)c(O)c2)ncn1 [Cpd 255, 2-{3-[(3S,5R)-3-tert-butyl-5-methylpiperazin-1-yl]-1,2,4-triazin-6-yl}-5-(6-methoxypyrimidin-4-yl)phenol] | 341 | –
4 | OC[C@@H]1CN(c2ncc(-c3ccc(-n4nccn4)cc3O)nn2)CCN1 [Cpd 45, 2-{3-[(3S)-3-(hydroxymethyl)piperazin-1-yl]-1,2,4-triazin-6-yl}-5-(2H-1,2,3-triazol-2-yl)phenol] | 142 | –
5 | Oc1cc(-c2ccncc2)ccc1-c1cnc(N2CCN[C@@H](C3CC3)C2)nn1 [Cpd 177, 2-{3-[(3S)-3-cyclopropylpiperazin-1-yl]-1,2,4-triazin-6-yl}-5-(pyridin-4-yl)phenol] | 29 | –
6 | CC[C@H]1CN(c2ncc(-c3ccc(-c4cnc5nn(C)nc5c4)cc3O)nn2)C[C@@H](C)N1 [Cpd 214, 2-{3-[(3S,5R)-3-ethyl-5-methylpiperazin-1-yl]-1,2,4-triazin-6-yl]-5-(2-methyl-2H-[1,2,3]triazolo[4,5-b]pyridin-6-yl)phenol] | 36.6 | –
7 | CC[C@H]1CN(c2ncc(-c3ccc(-c4c[nH]nc4F)cc3O)nn2)CCN1 [Cpd 123, 2-{3-[(3S)-3-ethylpiperazin-1-yl]-1,2,4-triazin-6-yl}-5-(3-fluoro-1H-pyrazol-4-yl)phenol] | 11.2 | –
8 | C[C@@H]1CN[C@@H](C)CN1c1ncc(-c2ccc(-c3cn[nH]c3)cc2O)nn1 (single isomer, unassigned) [Cpd 190, 2-{3-[(2R,5S)-2,5-dimethylpiperazin-1-yl]-1,2,4-triazin-6-yl}-5-(1H-pyrazol-4-yl)phenol or 2-{3-[(2S,5R)-2,5-dimethylpiperazin-1-yl]-1,2,4-triazin-6-yl}-5-(1H-pyrazol-4-yl)phenol] | 166 | –
9 | Cc1nc2c(C)nc(-c3ccc(-c4cnc(N5CCN[C@@H](C(C)C)C5)nn4)c(O)c3)cn2n1 [Cpd 78, 5-(2,8-dimethyl[1,2,4]triazolo[1,5-a]pyrazin-6-yl)-2-{3-[(3S)-3-(propan-2-yl)piperazin-1-yl]-1,2,4-triazin-6-yl}phenol] | 5.1 | –
10 | COc1cc(-c2ccc(-c3cnc(N4CCN[C@@H](C5CC5)C4)nn3)c(O)c2)ccn1 [Cpd 251, 2-{3-[(3S)-3-cyclopropylpiperazin-1-yl]-1,2,4-triazin-6-yl]-5-(2-methoxypyridin-4-yl)phenol] | 18.6 | –
11 | Oc1cc(-c2cn[nH]c2)ccc1-c1cnc(N2CCNC3(CC3)C2)nn1 [Cpd 55, 2-[3-(4,7-diazaspiro[2.5]octan-7-yl)-1,2,4-triazin-6-yl]-5-(1H-pyrazol-4-yl)phenol] | 548 | –
12 | CC[C@@H]1CN(c2ncc(-c3ccc(-c4cc(OC)ncn4)cc3O)nn2)C[C@H](C)N1 [Cpd 228, 2-{3-[(3R,5S)-3-ethyl-5-methylpiperazin-1-yl]-1,2,4-triazin-6-yl}-5-(6-methoxypyrimidin-4-yl)phenol] | 73.1 | –
13 | Cc1cn2cc(-c3cnc(-c4cnc(N5CCN(C)CC5)nn4)c(O)c3)cc(F)c2n1 [Cpd 122, 5-(8-fluoro-2-methylimidazo[1,2-a]pyridin-6-yl)-2-[3-(4-methylpiperazin-1-yl)-1,2,4-triazin-6-yl]pyridin-3-ol] | 41.2 | –
14 | CC[C@H]1CN(c2ncc(-c3ccc(-c4ccnc(OC)c4)cc3O)nn2)C[C@@H](C)N1 (single isomer, unassigned) [Cpd 266, 2-{3-[(3S,5R)-3-ethyl-5-methylpiperazin-1-yl]-1,2,4-triazin-6-yl}-5-(2-methoxypyridin-4-yl)phenol or 2-{3-[(3R,5S)-3-ethyl-5-methylpiperazin-1-yl]-1,2,4-triazin-6-yl}-5-(2-methoxypyridin-4-yl)phenol] | 19.4 | –
15 | Cc1cnc2nc(-c3ccc(-c4cnc(N5C[C@@H](C)N[C@@H](C)C5)nn4)c(O)c3)sc2n1 [Cpd 119, 2-{3-[(3R,5S)-3,5-dimethylpiperazin-1-yl]-1,2,4-triazin-6-yl}-5-(6-methyl[1,3]thiazolo[4,5-b]pyrazin-2-yl)phenol] | – | inactive
16 | CC(C)[C@H]1CN(c2ncc(-c3ccc(-c4cn[nH]c4F)cc3O)nn2)C[C@@H](C)N1 [Cpd 222, 5-(5-fluoro-1H-pyrazol-4-yl)-2-{3-[(3R,5S)-3-methyl-5-(propan-2-yl)piperazin-1-yl]-1,2,4-triazin-6-yl]phenol] | 9.4 | –
17 | [2H]C([2H])([2H])n1cc(-c2ccc(-c3cnc(N4CCN[C@@H](C(C)C)C4)nn3)c(O)c2)cn1 [Cpd 47, 5-[1-(Hz)methyl-1H-pyrazol-4-yl]-2-{3-[(3S)-3-(propan-2-yl)piperazin-1-yl]-1,2,4-triazin-6-yl}phenol] | 154 | –
18 | Oc1cc(-c2ccncc2F)ccc1-c1cnc(N2CCN[C@@H](C3CC3)C2)nn1 [Cpd 178, 2-{3-[(3S)-3-cyclopropylpiperazin-1-yl]-1,2,4-triazin-6-yl}-5-(3-fluoropyridin-4-yl)phenol] | 300 | –
19 | Cc1cn2cc(-c3ccc(-c4cnc(N5C[C@@H](C)N[C@@H](C)C5)nn4)c(O)c3)cc(C#N)c2n1 [Cpd 87, 6-(4-{3-[(3R,5S)-3,5-dimethylpiperazin-1-yl]-1,2,4-triazin-6-yl}-3-hydroxyphenyl)-2-methylimidazo[1,2-a]pyridine-8-carbonitrile] | 6.4 | –
20 | Cn1cc2cc(-c3cnc(-c4cnc(N5CCN[C@@H](C6CC6)C5)nn4)c(O)c3)cc(F)c2n1 [Cpd 181, 2-{3-[(3S)-3-cyclopropylpiperazin-1-yl]-1,2,4-triazin-6-yl}-5-(7-fluoro-2-methyl-2H-indazol-5-yl)pyridin-3-ol] | 6.2 | –
21 | COc1cc(-c2ccc(-c3cnc(N4CCN[C@@H](C(C)C)C4)nn3)c(O)c2)cc(C)n1 [Cpd 271, 5-(2-methoxy-6-methylpyridin-4-yl)-2-{3-[(3S)-3-(propan-2-yl)piperazin-1-yl]-1,2,4-triazin-6-yl}phenol] | 943 | –
22 | Cc1ccc2oc(-c3ccc(-c4cnc(N5C[C@@H](C)N[C@@H](C)C5)nn4)c(O)c3)cc2n1 [Cpd 120, 2-{3-[(3R,5S)-3,5-dimethylpiperazin-1-yl]-1,2,4-triazin-6-yl}-5-(5-methylfuro[3,2-b]pyridin-2-yl)phenol] | – | inactive
23 | Cc1cn2cc(-c3ccc(-c4cnc(N5C[C@@H](C)N[C@@H](C)C5)nn4)c(O)c3)ncc2n1 [Cpd 86, 2-{3-[(3R,5S)-3,5-dimethylpiperazin-1-yl]-1,2,4-triazin-6-yl}-5-(2-methylimidazo[1,2-a]pyrazin-6-yl)phenol] | 6 | –
24 | CC(C)[C@H]1CN(c2ncc(-c3ccc(-c4cnnn4C)cc3O)nn2)CCN1 [Cpd 261, 5-(1-methyl-1H-1,2,3-triazol-5-yl)-2-{3-[(3S)-3-(propan-2-yl)piperazin-1-yl]-1,2,4-triazin-6-yl}phenol] | 993 | –

same assay, conditions: Table 3; selected compounds from WO/2019/191229 A1, same MSD assay

Row | SMILES | IC50 [nM]
25 | C[C@@H]1CN(c2ncc(-c3ccc(-c4ccc5nccn5n4)cc3O)nn2)C[C@H](C)N1 [WO/2019/191229 A1 Cpd 385, reference compound] | 33.1
